# Experimental data as given in paper PMC6106931 (Alzheimer's Research & Therapy, 2018).
# Entries after “also recorded” stand apart in the source; their conditions may differ.
# Key:
# [1] = Plasma and CSF pharmacokinetics, population PK modeling, Study ALZ1005; assay type: in vivo, human; conditions: for Kp at 28 day: CSF / free plasma; for concentration at 28 day: CSF, read-out: C28d, CSF concentration at Day 28, Mean (SD); for AUC: read-out: Plasma AUCτ, Day 28, Mean (SD); for Cmax: read-out: Plasma Cmax, Day 28, Mean (SD)
# Method: CSF and plasma collection and processing, as well as apolipoprotein E (APOE) ε4 genotyping, are described in Additional file 2. Population PK modeling from sparse PK samples collected in the ALZ1005 Study was performed to derive individual steady-state maximum plasma concentration [Cmax] and area under the concentration-time profile during the dosing interval at steady state [AUC from 0 to 24 hours postdosing]. This model was also used to derive PK/PD simulations of CSF Aβ1–40 reduction (described in “Pharmacokinetic/pharmacodynamic relationship” section below).
# (§1) The lower limit of quantification (LLOQ) was 1 ng/ml.
# [2] = Plasma and CSF pharmacokinetics, noncompartmental analysis, Study ALZ1008; assay type: in vivo, human; conditions: for Kp at 28 day: CSF / free plasma, observed plasma concentration, free fraction 6%, read-out: Ratio C28d (CSF)/free plasma, Mean (SD); for concentration at 28 day: CSF, read-out: C28d, CSF concentration at Day 28, Mean (SD); for AUC: read-out: Plasma AUCτ, Day 28, Mean (SD)
# Method: Total apparent clearance for day 28 was calculated as dose/AUCτ.
# as §1
# [3] = Cognitive evaluations (CANTAB Elect, RBANS, CDR-SB, MMSE), Study ALZ1005; assay type: in vivo, human; conditions: Caucasian early AD
# Method: When multiple assessments were performed at the same visit by independent raters, the sequential order of testing was RBANS first followed by CDR, MMSE, and CANTAB Elect, and if raters for RBANS and CDR were the same, then CDR was performed prior to RBANS.
# The CDR assessed three domains of cognition (memory, orientation, judgment/problem solving) and three domains of function (community affairs, home/hobbies, personal care) using structured interviews of both the patient and a companion/informant by a trained rater and scored using a standard methodology. CDR global score for the six domains range from 0 to 3 with 0 indicating no dementia and 3 indicating severe dementia. It can be summed to obtain CDR Sum of Boxes (CDR-SB) with scores ranging from 0 to 18. CDR and CDR-Japanese version global score has been used in AD trials as a global measure of disease progression.
# RBANS battery includes 12 subsets that measure 5 indices; the Digit Span and Coding subtests measure Attention, the Picture Naming and Semantic Fluency subtests measure Language, the Figure Copy and Line Orientation subtests measure Visuospatial/Construction, List Learning and Store Memory subtests measure Immediate Memory, and List Recall, List Recognition, Store Memory and Figure Recall measure Delayed Memory. RBANS has been used in multinational AD clinical trials.
# The CANTAB test battery consists of paired associated learning (PAL), reaction time (RTI) and spatial working memory (SWM). Performance in this test battery is associated with pathologic Aβ and tau levels and enables identification of individuals with memory impairment who are likely to develop AD and those with questionable dementia. Scores have a sensitivity of 0.83 and a specificity of 0.82 when differentiating individuals with MCI from healthy older adults. The PAL test assesses visuospatial episodic memory and the outcome measure is the adjusted number of errors committed at the 6-pattern stage. The test-retest reliability for PAL is 0.75 in MCI and 0.85 in AD. The RTI test assesses psychomotor processing speed. […] The test-retest reliability is 0.68 in MCI and 0.72 in AD. The SWM test assesses working memory and executive function. The outcome measure is the number errors made during performing of the task. The test-retest reliability is 0.55 in MCI and 0.68 in AD.
# MMSE rates subjects on orientation, registration, attention, calculation, recall and language. The maximum score is 30, and lower the score the greater the impairment.
# [4] = parameters: method as in PMID 29067308; conditions: ALZ1002 Study; CV = 19%; cited from earlier work
# [5] = Clinical safety, Study ALZ1008; conditions: Japanese preclinical AD
# Method: Safety and tolerability were assessed during the study by recording adverse events (AEs), clinically significant abnormalities, clinical laboratory tests, ECG, and vital signs and by performing physical, neurological, and MRI examinations. All enrolled participants were included in the safety analysis population.
# [6] = human, plasma, oral, Caucasian early AD, 10 mg q.d., population PK modeling
# [7] = human, plasma, oral, Caucasian early AD, 50 mg q.d., population PK modeling
# [8] = Japanese preclinical AD, 10 mg q.d.
# [9] = Japanese preclinical AD, 50 mg q.d.
compound,measurement,setting,value
C[C@@]1(c2cc(NC(=O)c3ccc(C#N)cn3)ccc2F)C=CSC(N)=N1 [atabecestat],CNS penetrance of unbound drug,[1]; Caucasian and Japanese early AD,high central nervous system penetrance of unbound drug; also recorded: high CNS penetrance of unbound drug
same,CL/F,"[1]; Caucasian early AD (preclinical AD and MCI due to AD), 10 and 50 mg q.d., population PK estimate, intersubject CV 30%",8.32 L/h
same,"DN AUCτ (dose normalization to 5 mg), Day 28, Mean (SD)","[1]; Caucasian early AD, 10 mg q.d.",616 (185) ng.h/mL
same,"DN C28d (CSF, dose normalization to 5 mg), Mean (SD)","[1]; Caucasian early AD, 10 mg q.d.",1.54 (0.52) ng/mL
same,"DN Cmax (dose normalization to 5 mg), Day 28, Mean (SD)","[1]; Caucasian early AD, 10 mg q.d.",55 (10) ng/mL
same,"DN AUCτ (dose normalization to 5 mg), Day 28, Mean (SD)","[1]; Caucasian early AD, 50 mg q.d.",620 (171) ng.h/mL
same,"DN C28d (CSF, dose normalization to 5 mg), Mean (SD)","[1]; Caucasian early AD, 50 mg q.d.",1.51 (0.71) ng/mL
same,PK linearity,"[1]; both populations, 10 and 50 mg",linear PK
same,Kp at 28 day,"[1]; human, oral, Caucasian early AD, 10 mg q.d., simulated plasma concentration, free fraction 6%, read-out: Ratio C28d (CSF)/free plasma, Mean (SD)",0.789
same,Kp at 28 day,"[1]; human, oral, Caucasian early AD, 50 mg q.d., simulated plasma concentration, free fraction 6%, read-out: Ratio C28d (CSF)/free plasma, Mean (SD)",0.892
same,Kp at 28 day,"[1]; human, oral, Caucasian early AD, 10-mg and 50-mg groups together, day 28",0.84
same,concentration at 28 day,"[1]; human, oral, Caucasian early AD, 10 mg q.d.",3.08 ng/mL
same,concentration at 28 day,"[1]; human, oral, Caucasian early AD, 50 mg q.d.",15.1 ng/mL
same,Tmax at 28 day,[1]; [6],1.7 h
same,AUC,[1]; [6],1230 ng·h/mL
same,Cmax,[1]; [6],110 ng/mL
same,AUC,[1]; [7],6200 ng·h/mL
same,Cmax,[1]; [7],550 ng/mL
same,Tmax,"[1]; human, plasma, oral, Caucasian early AD, 50 mg q.d., population PK modeling, read-out: Plasma Tmax, Day 28",1.8 h
same,day at or before which steady-state PK was reached,"[2]; Japanese participants, based on mean predose concentrations",≤ 8 days
same,"DN AUCτ (dose normalization to 5 mg), Day 28, Mean (SD)",[2]; [8],555 (158) ng.h/mL
same,"DN Cmax (dose normalization to 5 mg), Day 28, Mean (SD)",[2]; [8],53.6 (14.1) ng/mL
same,"Plasma Tmax, Day 28, Median (Range)",[2]; [8],2.0 (1.0-3.0) h
same,"DN AUCτ (dose normalization to 5 mg), Day 28, Mean (SD)",[2]; [9],473 (255) ng.h/mL
same,"DN Cmax (dose normalization to 5 mg), Day 28, Mean (SD)",[2]; [9],51.6 (26.7) ng/mL
same,"Plasma Cmax, Day 28, Mean (SD)",[2]; [9],516 (267) ng/mL
same,"Plasma Tmax, Day 28, Median (Range)",[2]; [9],1.5 (1.0-2.0) h
same,Kp at 28 day,"[2]; human, oral, 10 mg, Japanese preclinical AD, 10 mg q.d.",0.65
same,Kp at 28 day,"[2]; human, oral, 50 mg, Japanese preclinical AD, 50 mg q.d.",0.83
same,concentration at 28 day,"[2]; human, oral, Japanese preclinical AD, 10 mg q.d.",3.29 ng/mL
same,concentration at 28 day,"[2]; human, oral, Japanese preclinical AD, 50 mg q.d.",19.1 ng/mL
same,AUC,"[2]; human, plasma, oral, Japanese preclinical AD, 10 mg q.d.",1110 ng·h/mL
same,Cmax,"[2]; human, plasma, oral, Japanese preclinical AD, 10 mg q.d., read-out: Plasma Cmax, Day 28, Mean (SD)",107 ng/mL
same,AUC,"[2]; human, plasma, oral, Japanese preclinical AD, 50 mg q.d.",4730 ng·h/mL
same,"CDR-SB Total Score, change from baseline at day 28, Diff. of LS Means (SE) vs placebo",[3]; 10 mg,^-0.07 (0.305)
same,"CDR-SB Total Score, change from baseline at day 28, LS Mean",[3]; 10 mg,^-0.04
same,"CDR-SB Total Score, change from baseline at day 28, Mean (SD)",[3]; 10 mg,^-0.04 (0.660)
same,"MMSE Total Score, change from baseline at day 28, Diff. of LS Means (SE) vs placebo",[3]; 10 mg,^-1.33 (0.906)
same,"MMSE Total Score, change from baseline at day 28, LS Mean",[3]; 10 mg,^-0.76
same,"MMSE Total Score, change from baseline at day 28, Mean (SD)",[3]; 10 mg,^-0.40 (2.971)
same,"PAL Total Errors 6 Shapes Adjusted, change from baseline at day 28, Diff. of LS Means (SE) vs placebo",[3]; 10 mg,^-1.14 (2.086)
same,"PAL Total Errors 6 Shapes Adjusted, change from baseline at day 28, LS Mean",[3]; 10 mg,^0.87
same,"RBANS Total Scale, change from baseline at day 28, Diff. of LS Means (SE) vs placebo",[3]; 10 mg,^-4.39 (2.762)
same,"RBANS Total Scale, change from baseline at day 28, LS Mean",[3]; 10 mg,^0.07
same,"RBANS Total Scale, change from baseline at day 28, Mean (SD)",[3]; 10 mg,^0.33 (4.995)
same,"RTI Simple Reaction Time Mean, change from baseline at day 28, Diff. of LS Means (SE) vs placebo",[3]; 10 mg,^41.89 (23.130)
same,"RTI Simple Reaction Time Mean, change from baseline at day 28, LS Mean",[3]; 10 mg,^14.30
same,"SWM Between Errors 4-8 Boxes, change from baseline at day 28, Diff. of LS Means (SE) vs placebo",[3]; 10 mg,^0.06 (2.631)
same,"SWM Between Errors 4-8 Boxes, change from baseline at day 28, LS Mean",[3]; 10 mg,^1.48
same,"CDR-SB Total Score, change from baseline at day 28, Diff. of LS Means (SE) vs placebo",[3]; 50 mg,^0.51 (0.300)
same,"CDR-SB Total Score, change from baseline at day 28, LS Mean",[3]; 50 mg,^0.54
same,"CDR-SB Total Score, change from baseline at day 28, Mean (SD)",[3]; 50 mg,^0.54 (1.082)
same,"MMSE Total Score, change from baseline at day 28, Diff. of LS Means (SE) vs placebo",[3]; 50 mg,^-1.29 (0.880)
same,"MMSE Total Score, change from baseline at day 28, LS Mean",[3]; 50 mg,^-0.73
same,"MMSE Total Score, change from baseline at day 28, Mean (SD)",[3]; 50 mg,^-0.75 (3.317)
same,"PAL Total Errors 6 Shapes Adjusted, change from baseline at day 28, Diff. of LS Means (SE) vs placebo",[3]; 50 mg,^-1.44 (2.037)
same,"PAL Total Errors 6 Shapes Adjusted, change from baseline at day 28, LS Mean",[3]; 50 mg,^0.57
same,"RBANS Total Scale, change from baseline at day 28, Diff. of LS Means (SE) vs placebo",[3]; 50 mg,^-2.48 (2.705)
same,"RBANS Total Scale, change from baseline at day 28, LS Mean",[3]; 50 mg,^1.97
same,"RBANS Total Scale, change from baseline at day 28, Mean (SD)",[3]; 50 mg,^1.88 (10.392)
same,"RTI Simple Reaction Time Mean, change from baseline at day 28, Diff. of LS Means (SE) vs placebo",[3]; 50 mg,^33.19 (23.367)
same,"RTI Simple Reaction Time Mean, change from baseline at day 28, LS Mean",[3]; 50 mg,^5.60
same,"SWM Between Errors 4-8 Boxes, change from baseline at day 28, Diff. of LS Means (SE) vs placebo",[3]; 50 mg,^-0.48 (2.693)
same,"SWM Between Errors 4-8 Boxes, change from baseline at day 28, LS Mean",[3]; 50 mg,^0.93
same,"RBANS total scale, MMSE total and CDR Sum of Boxes change from baseline at day 28",[3]; any treatment group,no meaningful change
same,"CANTAB (PAL, RTI, SWM) changes from baseline at day 28",[3]; atabecestat treatment groups,No meaningful changes
same,"oral clearance (CL/F), model-based estimate",[4],10.5 L/h
same,incidence of SAE,[5],no reported incidence of SAE
same,changes in QTcF,[5]; no changes from baseline > 30-ms,no clinically significant changes
